Source: paper PMC11413854, “Reversible Control of Native GluN2B-Containing NMDA Receptors with Visible Light” (ACS Chemical Neuroscience, 2024)
Several values for one entry are separate records, joined by “and”; a condition that tells them apart may be missing. Identical values can stand only once.

Tested on: Xenopus laevis tadpoles
Test: Behavioral test: locomotion of free-swimming tadpoles under light cycles
Assay type: in vivo
Details: for reduction in locomotor activity in the dark vs baseline / Normalized travelled distance by tadpoles (/baseline/control), mean: 5 µM; for reduction in locomotor activity in the dark vs baseline: 45 min incubation; for Normalized travelled distance by tadpoles (/baseline): per well (mean of 3 tadpoles)
Description: In our behavioral assay, tadpoles were placed in groups of three animals per well of a 12-well plate allowing them to swim freely. Their baseline locomotion was recorded for 3 min in the dark, after which they were incubated for 45 min in a solution containing either 0.1% DMSO (control) or 5 μM OptoNAM-3 (refer to Methods and Figure S5A for details). For each condition (control and OptoNAM-3), tadpole locomotion was recorded for 3 min in the dark, followed by cycles of 1 min illumination at 365 nm and then 550 nm, and interspersed with 3 min rest periods to avoid bias due to a poststimulation refractory period[51],[56] (Figure S5A). We also conducted the same protocol using 460/550 nm light cycles, as OptoNAM-3 can switch from the trans to cis state upon exposure to blue light at 460 nm when pre-equilibrated on cells (see above). The tadpole traveled distance was calculated from precise position coordinates of tadpole body parts across frames, assessed by automatic position multianimal tracking using the open-source program DeepLabCut.[57],[58]Xenopus laevis tadpoles present nonvisual photoreceptors that generate a photomotor response characterized by an increase of activity upon UV light illumination.[59] We indeed observed an increase in tadpole locomotion with UV and blue light compared to 550 nm light in the control condition (∼1.5-fold, Figures 6A,B and S5B,C, gray points). The photodependent effect of OptoNAM-3 on locomotion was therefore quantified by calculating the traveled distance normalized twice: by the tadpole baseline locomotion (to decrease interindividual variability linked to the locomotion speed) and, for each condition, by the locomotion of the control group (to remove the nonspecific effect of UV or blue light). […] Their locomotion could be restored to baseline activity with UV or blue light and inhibited again by 550 nm light for two cycles (Figure 6C,D and Movies S1 and S2). Consequently, OptoNAM-3 enabled fast and reversible control of tadpole locomotion using light. In addition, the compound red-shifted properties observed in vitro were conserved in vivo. OptoNAM-3 therefore holds great promise to photocontrol native GluN2B-NMDARs with the high biocompatibility of red-shifted photoswitches.[29],[31]
Xenopus laevis embryos were obtained from the European Xenopus Resource Centre (EXRC, Portsmouth, UK) or TEFOR Paris Sackay (Saclay, France), maintained in Modified Barth’s Saline (MBS) 0.1× (pH adjusted to 7.8 with NaOH), and supplemented with 10 μg/mL of gentamicin, in 10 cm Petri dishes with a maximum of 50 tadpoles per dish. The embryos were stored at 18 °C until they reached stage 49 (12–14 days postfertilization).[86] Experiments on Xenopus tadpoles were performed according to European Union guidelines (project authorization Apafis #44976–2023092616413977)
For the experiments (see Figure S5A), stage 49 X. laevis tadpoles were placed in the center of a 12-well plate at a density of three animals per well in 0.1× MBS. The 12-well plate was covered with a 3D-printed dome equipped with a liquid guide (15 cm) connected to a multichannel LED delivery system (CoolLed pE-4000) at the top. The plate was positioned on optical cast plastic infrared filters, which allowed only wavelengths above 650 nm to pass, and red light (770 nm at 15% intensity) was continuously applied during recording to enable video recording in the dark. […] Subsequently, the tadpoles were incubated in the dark for 30 min in a 60 × 15 mm Petri dish containing 5 mL of either the vehicle (0.1% DMSO in MBS 0.1×) or OptoNAM-3 solution (5 μM in MBS 0.1×) to facilitate drug penetration. Afterward, the tadpoles were transferred back to the 12-well plate, which contained either the vehicle solution or OptoNAM-3 (5 μM), and habituation to red light was performed again for 15 min. […]

[1] = Sup. Fig. 5B, UV/green cycles, second data block (c27-c50), raw

## c1ccc(/N=N/c2ccc(CCNc3ccncc3)cc2)cc1 [OptoNAM-3, (E)-N-(4-(Phenyldiazenyl)phenethyl)pyridin-4-amine]
UV/visible cycle protocol group
  reduction in locomotor activity in the dark vs baseline: 35%
blue/green cycle protocol group
  reduction in locomotor activity in the dark vs baseline: 50%
Fig 6C, 365 nm (1), UV/green light cycle experiment
  Normalized travelled distance by tadpoles (/baseline/control), mean: 1.089
Fig 6C, 365 nm (2), UV/green light cycle experiment
  Normalized travelled distance by tadpoles (/baseline/control), mean: 0.883
Fig 6C, 550 nm (1), UV/green light cycle experiment
  Normalized travelled distance by tadpoles (/baseline/control), mean: 0.484
Fig 6C, 550 nm (2), UV/green light cycle experiment
  Normalized travelled distance by tadpoles (/baseline/control), mean: 0.221
Fig 6C, dark, UV/green light cycle experiment
  Normalized travelled distance by tadpoles (/baseline/control), mean: 0.649
Fig 6D, 460 nm (1), blue/green light cycle experiment
  Normalized travelled distance by tadpoles (/baseline/control), mean: 2.548
Fig 6D, 460 nm (2), blue/green light cycle experiment
  Normalized travelled distance by tadpoles (/baseline/control), mean: 2.278
Fig 6D, 550 nm (1), blue/green light cycle experiment
  Normalized travelled distance by tadpoles (/baseline/control), mean: 0.587
Fig 6D, 550 nm (2), blue/green light cycle experiment
  Normalized travelled distance by tadpoles (/baseline/control), mean: 0.462
Fig 6D, dark, blue/green light cycle experiment
  Normalized travelled distance by tadpoles (/baseline/control), mean: 0.509
Sup. Fig. 5B, UV/green cycles, first data block (c1-c24), raw
  Distance in mm, well mean of 3 tadpoles, uv 1 min: 543.756 mm and 730.486 mm and 588.764 mm and 724.010 mm and 734.699 mm and 651.720 mm and 525.360 mm and 469.552 mm
[1]
  Distance in mm, well mean of 3 tadpoles, green2 1 min: 28.734 mm and 47.149 mm and 41.068 mm and 52.900 mm and 46.164 mm and 30.050 mm and 28.925 mm and 43.119 mm
  Distance in mm, well mean of 3 tadpoles, uv 1 min: 636.734 mm and 582.355 mm and 684.728 mm and 679.263 mm and 728.479 mm and 513.366 mm and 700.914 mm and 476.462 mm
Sup. Fig. 5B, 365 nm (1), individual wells
  Normalized travelled distance by tadpoles (/baseline), single well: 1.393 and 3.082 and 2.491 and 2.557 and 3.849 and 6.596 and 1.808 and 1.431 and 6.280 and 5.411 and 9.003 and 6.422 and 6.492
Sup. Fig. 5B, 365 nm (1), mean of 16 wells
  Normalized travelled distance by tadpoles (/baseline), mean: 4.878
Sup. Fig. 5B, 365 nm (2), individual wells
  Normalized travelled distance by tadpoles (/baseline), single well: 1.002 and 2.077 and 1.181 and 1.514 and 2.542 and 5.415 and 1.765 and 1.460 and 5.497 and 4.718 and 10.726 and 5.196 and 4.515
Sup. Fig. 5B, 365 nm (2), mean of 16 wells
  Normalized travelled distance by tadpoles (/baseline), mean: 4.635
Sup. Fig. 5B, 550 nm (1), individual wells
  Normalized travelled distance by tadpoles (/baseline), single well: 0.458 and 1.858 and 0.896 and 0.456 and 0.161 and 0.143 and 0.389 and 0.051 and 0.457 and 0.356 and 0.468 and 0.574 and 0.522
Sup. Fig. 5B, 550 nm (1), mean of 16 wells
  Normalized travelled distance by tadpoles (/baseline), mean: 0.561
Sup. Fig. 5B, 550 nm (2), individual wells
  Normalized travelled distance by tadpoles (/baseline), single well: 0.073 and 0.057 and 0.075 and 0.047 and 0.119 and 0.187 and 0.194 and 0.072 and 0.283 and 0.438 and 0.540 and 0.500 and 0.411
Sup. Fig. 5B, 550 nm (2), mean of 16 wells
  Normalized travelled distance by tadpoles (/baseline), mean: 0.274
Sup. Fig. 5B, dark, individual wells (each well is the mean of 3 tadpole)
  Normalized travelled distance by tadpoles (/baseline), single well: 0.095 and 0.145 and 0.255 and 0.231 and 0.246 and 0.190 and 0.129 and 0.073 and 0.384 and 0.405 and 0.424 and 0.476 and 0.614
Sup. Fig. 5B, dark, mean of 16 wells (each well is the mean of 3 tadpole)
  Normalized travelled distance by tadpoles (/baseline), mean: 0.393
Sup. Fig. 5B, dark
  Normalized travelled distance by tadpoles (/baseline): 0.643 and 0.955 and 1.031
Sup. Fig. 5C, 460 nm (1), individual wells
  Normalized travelled distance by tadpoles (/baeline/control), single well: 1.914 and 1.376 and 8.550 and 2.480 and 4.315 and 7.810 and 5.706 and 5.046 and 11.224 and 1.065 and 13.799 and 8.327 and 1.491
Sup. Fig. 5C, 460 nm (1), mean of 17 wells
  Normalized travelled distance by tadpoles (/baeline/control), mean: 6.279
Sup. Fig. 5C, 460 nm (2), individual wells
  Normalized travelled distance by tadpoles (/baeline/control), single well: 2.036 and 1.506 and 10.137 and 2.268 and 4.306 and 11.041 and 6.016 and 15.287 and 9.339 and 1.297 and 11.889 and 4.687 and 3.893
Sup. Fig. 5C, 460 nm (2), mean of 17 wells
  Normalized travelled distance by tadpoles (/baeline/control), mean: 6.476
Sup. Fig. 5C, 460 nm (2)
  Normalized travelled distance by tadpoles (/baseline): 8.083 and 4.823 and 6.568 and 6.920
Sup. Fig. 5C, 550 nm (1), individual wells
  Normalized travelled distance by tadpoles (/baeline/control), single well: 0.384 and 0.350 and 1.155 and 0.578 and 0.301 and 1.159 and 2.310 and 0.844 and 0.446 and 0.287 and 2.947 and 0.796 and 0.259
Sup. Fig. 5C, 550 nm (1), mean of 17 wells
  Normalized travelled distance by tadpoles (/baeline/control), mean: 0.899
Sup. Fig. 5C, 550 nm (2), individual wells
  Normalized travelled distance by tadpoles (/baeline/control), single well: 0.201 and 0.140 and 0.631 and 0.384 and 0.385 and 0.939 and 0.448 and 0.727 and 1.019 and 0.143 and 0.892 and 1.756 and 0.609
Sup. Fig. 5C, 550 nm (2), mean of 17 wells
  Normalized travelled distance by tadpoles (/baeline/control), mean: 0.702
Sup. Fig. 5C, 550 nm (2)
  Normalized travelled distance by tadpoles (/baseline): 1.231 and 0.815 and 0.780 and 0.842
Sup. Fig. 5C, dark, individual wells (each well is the mean of 3 tadpole)
  Normalized travelled distance by tadpoles (/baeline/control), single well: 0.118 and 0.080 and 0.825 and 0.228 and 0.352 and 1.330 and 0.587 and 0.877 and 0.773 and 0.144 and 0.553 and 0.717 and 0.589
Sup. Fig. 5C, dark, mean of 17 wells (each well is the mean of 3 tadpole)
  Normalized travelled distance by tadpoles (/baeline/control), mean: 0.520
Sup. Fig. 5C, dark
  Normalized travelled distance by tadpoles (/baseline): 0.453 and 0.357 and 0.524 and 0.331
